{
  "source": "patent US7336989B2",
  "about": "“System and method for quantitative or qualitative measurement of exogenous substances in tissue and other materials using laser-induced fluorescence spectroscopy” (priority 2002, dated 2008)",
  "experiment": "Penetration depth of topically applied antibiotics into corneal tissue, by excimer laser ablation and laser-induced fluorescence spectroscopy with PLS model",
  "type": "in vitro ADME",
  "conditions": "for Antibiotic Penetration Depth (Mean): rinsed, mean of cases (SD in text)",
  "description": "The second set of experiments was performed on fresh rabbit corneas. All experiments were performed in compliance with the Association for Research in Vision and Ophthalmology (ARVO) Statement on the Use of Animals in Research. Approval was obtained from the University of California, Irvine, Institutional Care and Use Committee (IACUC) and the IACUC guidelines regarding animal experimentation were followed. New Zealand White rabbit heads were obtained from an abattoir and kept at 4° C. until eyes were enucleated within 7-hours of death to maximize preservation of the corneal epithelium. The globes were stored in a moist chamber at 4° C. for approximately 4 hours until time of use.\nThe main component, mounted on or above an optical table 21, is the Nidek EC-5000 laser system 22 (Model EC-5000, Nidek Technologies, Inc., Japan) operating at 193 nm. The average laser energy is about 16.4 mJ/pulse measured over a period of 10-s while pulsing at 4 Hz. The eye-fixation LED and the aiming He—Ne laser within the laser system 22 are disabled to avoid their interference with the measured corneal autofluorescence.\nDuring the experiments, the laser 22 is operated to emit a collimated laser beam 23 in the direction of a cornea 24. The laser 22 is operated in its manual mode to pulse the beam 23 at 4 Hz and generate a rectangular spot size of about 2×4.5-mm. The BNC cable connecting the control circuitry of the EC-5000 to the OEM […] excimer laser (Lambda Physik, Fort Lauderdale, Fla.) is tapped using a BNC T-adapter. […]\nEach pulse of radiation emitted from the laser 22 ablates a thin layer of the cornea 24. The laser-induced fluorescence (LIF) 32 produced by the ablated cornea 24 is reflected by a 2″ off-axis parabolic mirror 34 (Al, SiO-protected Model A8037-331, Janos Technology Inc., Townshend, Vt.) mounted on a mirror holder 36 that is, in turn, mounted on an XYZ translator 38. […] With each trigger pulse, the spectrograph 26 measures and auto-saves the fluorescence spectrum generated by the corresponding laser pulse.\nThe cornea 24 was placed epithelium-up (with the exception of the cornea in Example 4) on a circular aluminum tray 42. […] The laser 22 was set to ablate the cornea at 4-Hz for a period of about 7-minutes and the fluorescence spectrum generated by each pulse was measured and saved. […]\nIn each set of experiments, the measured fluorescence spectra are corrected for dark current and background light, and each spectrum is smoothed using a 5-point moving average window. The series of spectra measured from a given cornea are normalized by the peak value of the first spectrum in the series (i.e. the spectrum of the corneal surface). […]",
  "note": "“And” between values parts separate entries of the source, which are not always exact repeats. Identical values can stand only once.",
  "data": [
    {"smiles": "COc1c(N2CCNC(C)C2)c(F)cc2c(=O)c(C(=O)O)cn(C3CC3)c12", "note": "(stereo not shown) [Gatifloxacin, gatifloxacin]", "values": [
      {"measurement": "Penetration of the corneal epithelium (in words)", "result": "penetrate the epithelium significantly more than ciprofloxacin"}
    ]},
    {"smiles": "O=C(O)c1cn(C2CC2)c2cc(N3CCNCC3)c(F)cc2c1=O", "note": "[Ciprofloxacin, ciprofloxacin]", "values": [
      {"measurement": "Antibiotic Penetration Depth (individual cases)", "setting": "enucleated rabbit globes, topical 4 drops for 10 min, then 3 drops for 5 min, rinsed with lactated Ringer's, single cornea per case", "result": "0.6 μm and 1.5 μm and 0.9 μm"},
      {"measurement": "Antibiotic Penetration Depth (Mean)", "setting": "enucleated rabbit globes, topical 4 drops for 10 min, then 3 drops for 5 min", "result": 1.0, "unit": "μm"},
      {"measurement": "Antibiotic Penetration Depth (Mean)", "setting": "enucleated rabbit globes, topical 4 drops for 10 min, then 3 drops for 5 min, listed as ciprofloxacin", "result": "1.0±0.5", "unit": "μm"}
    ]}
  ]
}
